Read-outs that look alike come from different tables or passages of the source.
Assays:
[1] = target: T1, Cyclin Dependent Kinase 1/Cyclin A2 (CDK1-cycA2) (Homo sapiens, UniProt P06493); experiment: CDK1-cycA2 TR-FRET (Lance) enzyme assay; format: biochemical; details: for Ki: Table O, enzymatic assay; for FS CDK1/CDK2: fold selectivity, enzymatic Ki ratio
T1 construct: purchased ProQinase 0134-0054-1
Procedure, shortened: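 Human CDK1/cyclin A2 pre-incubated 30 min with compound dose responses in 50 mM HEPES pH 7.5, 10 mM MgCl2, 2 mM TCEP, 0.05% BGG, 0.01% Brij 35. Reaction quenched with EDTA (15 mM final); TR-FRET readout using Eu-anti-phospho-4E-BP1, acceptor/donor ratio. Inhibition constants from Morrison equation.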

[2] = target: T2, Cyclin Dependent Kinase 2/Cyclin E1 (CDK2-cycE1) (Homo sapiens, UniProt P24941); experiment: CDK2-cycE1 TR-FRET (LANCE) enzyme assay; format: biochemical; details: for Ki: enzymatic assay, read-out: CDK2 Ki; for FS CDK1/CDK2 / FS CDK4/CDK2: fold selectivity;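 on improvement in potency against CDK2 (Ki) over Comparator C: fold lower CDK2 Ki than comparator c (Ki 0.032 µM)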
T2 construct: purchased ProQinase 0050-0055-1
Procedure, shortened: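 Compound dose responses pre-incubated 30 min with CDK2-cycE1 in 50 mM HEPES pH 7.5, 10 mM MgCl2, 2 mM TCEP, 0.05% BGG, 0.01% Brij 35. Reaction quenched with EDTA (15 mM final), phospho-MBP detected by Eu-anti-phospho-MBP TR-FRET (acceptor/donor ratio). Inhibition constants from Morrison equation.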

[3] = target: T3, Cyclin Dependent Kinase 4/Cyclin D3 (CDK4-cycD3) (Homo sapiens, UniProt P11802); experiment: CDK4-cycD3 TR-FRET (LANCE) enzyme assay; format: biochemical; details: for Ki: Table O, enzymatic assay; for FS CDK4/CDK2: fold selectivity, enzymatic Ki ratio
T3 construct: purchased Carna Biosciences 04-105
T3 sequence (P11802 whole entry): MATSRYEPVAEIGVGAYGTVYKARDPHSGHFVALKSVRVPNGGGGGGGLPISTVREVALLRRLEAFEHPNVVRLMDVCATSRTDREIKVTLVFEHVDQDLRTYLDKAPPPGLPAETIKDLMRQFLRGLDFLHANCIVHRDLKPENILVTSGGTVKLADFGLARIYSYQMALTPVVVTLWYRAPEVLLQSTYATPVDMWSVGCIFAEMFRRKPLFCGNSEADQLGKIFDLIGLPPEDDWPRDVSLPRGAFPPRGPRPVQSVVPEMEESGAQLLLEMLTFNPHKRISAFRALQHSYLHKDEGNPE
T3 sequence (P30281 whole entry partner): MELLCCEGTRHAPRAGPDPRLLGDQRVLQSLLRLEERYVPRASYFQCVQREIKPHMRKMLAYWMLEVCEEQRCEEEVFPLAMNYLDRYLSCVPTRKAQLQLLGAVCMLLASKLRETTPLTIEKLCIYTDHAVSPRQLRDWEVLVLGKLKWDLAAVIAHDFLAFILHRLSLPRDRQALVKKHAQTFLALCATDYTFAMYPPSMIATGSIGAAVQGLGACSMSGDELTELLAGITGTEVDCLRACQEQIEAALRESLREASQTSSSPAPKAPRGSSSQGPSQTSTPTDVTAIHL
Procedure, shortened: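 Compound dose responses pre-incubated 30 min with enzyme mix in 50 mM HEPES pH 7.5, 10 mM MgCl2, 2 mM TCEP, 0.05% BGG, 0.01% Brij 35. Reaction quenched with EDTA (15 mM final); Eu-anti-phospho-4E-BP1 TR-FRET detection, acceptor/donor ratio. Ki derived by Morrison equation.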

[4] = test system: OVISE (JCRB1043, CCNE1-amplified); experiment: OVISE EdU incorporation cell proliferation assay (CDK2-dependent); format: cell-based; details: for IC50: cellular assay, read-out: CDK2 OVISE IC50; for FS SKOV-3/OVISE: fold selectivity
Procedure, shortened: (§1)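 Cells in RPMI/10% FBS dosed with compound (0.5% DMSO final) for 16 h at 37 °C, 5% CO2, then EdU 0.5 μM final for 8 h before fixation and imaging. IC50 from 4-parameter logistic fit of EdU-positive cell fraction versus dose.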

SKOV-3 (ATCC HTB-77) = experiment: SKOV-3 EdU incorporation cell proliferation assay (CDK4/6-dependent); format: cell-based; details: for IC50: Homo sapiens, cellular assay, read-out: CDK4/6 SKOV-3 IC50; for FS SKOV-3/OVISE: fold selectivity, cellular IC50 ratio
Procedure, shortened: as §1

[5] = Table O, enzymatic CDK1 Ki over CDK2 Ki
[6] = Table O, enzymatic CDK4 Ki over CDK2 Ki
[7] = Table O, cellular SKOV-3 IC50 over OVISE IC50

T1 sequence (P06493 whole entry): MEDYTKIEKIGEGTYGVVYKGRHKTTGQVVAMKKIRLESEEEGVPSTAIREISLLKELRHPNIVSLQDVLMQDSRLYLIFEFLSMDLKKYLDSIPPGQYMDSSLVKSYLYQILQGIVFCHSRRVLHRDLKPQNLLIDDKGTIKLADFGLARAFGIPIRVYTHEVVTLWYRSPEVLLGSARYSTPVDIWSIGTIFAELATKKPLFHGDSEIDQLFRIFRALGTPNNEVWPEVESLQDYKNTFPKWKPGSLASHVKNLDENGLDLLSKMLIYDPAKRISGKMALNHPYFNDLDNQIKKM
T1 sequence (P20248 whole entry partner): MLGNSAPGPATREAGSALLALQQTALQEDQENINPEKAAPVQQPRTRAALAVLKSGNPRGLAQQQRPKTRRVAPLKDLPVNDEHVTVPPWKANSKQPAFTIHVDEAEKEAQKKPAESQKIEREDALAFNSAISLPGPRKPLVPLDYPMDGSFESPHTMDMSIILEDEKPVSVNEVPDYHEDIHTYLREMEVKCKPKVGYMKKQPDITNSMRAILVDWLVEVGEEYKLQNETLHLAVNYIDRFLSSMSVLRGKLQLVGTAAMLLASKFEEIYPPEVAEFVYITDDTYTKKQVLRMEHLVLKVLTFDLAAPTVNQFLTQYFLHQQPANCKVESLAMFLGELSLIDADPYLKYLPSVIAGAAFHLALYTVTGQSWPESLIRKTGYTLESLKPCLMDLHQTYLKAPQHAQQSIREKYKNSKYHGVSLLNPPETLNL

Row | SMILES | Ki [1] | Ki ([2]; Table O) | FS CDK1/CDK2 [2, 5] | FS CDK4/CDK2 [2, 6] | Ki [3] | IC50 ([4]; Table O) | FS SKOV-3/OVISE [4, 7] | IC50 (SKOV-3 (ATCC HTB-77); SK-OV-3, Table O) | also measured
1 | COc1nc(C)ncc1Nc1cc([C@H]2CC[C@@H](OC(=O)NC(C)C)C2)[nH]n1 [Example 2Y, (1R,3S)-3-(3-((4-methoxy-2-methylpyrimidin-5-yl)amino)-1H-pyrazol-5-yl)cyclopentyl isopropylcarbamate] | 7500 nM | 210 nM | 36 | 230 | 49000 nM | 16000 nM | >1.3 | > 20000 nM | improvement in potency against CDK2 (Ki) over Comparator C [2]: 0.15 fold; increased fold-selectivity CDK4/CDK2 over Comparator C ([2]; Table Q, (+) sign after FS CDK4/CDK2): (+) (The (+) sign in Table Q signifies desirable increased fold-selectivity of the exemplary compounds over Comparator C); Ki ([2]; Table Q): 210 nM; FS CDK1/CDK2 ([2]; Table Q, enzymatic): 36; FS CDK4/CDK2 ([2]; Table Q, enzymatic): 230; FS SKOV-3/OVISE ([4]; Table Q, cellular): >1.3; improvement in CDK2 OVISE cell potency over Comparator C ([4]; Table Q, in brackets after OVISE IC50, Comparator C 5.5 μM): 0.18 fold; IC50 (SKOV-3 (ATCC HTB-77); SK-OV-3, Table Q): > 20000 nM
2 | O=C(NC1CCOCC1)O[C@@H]1CC[C@H](c2cc(Nc3cccnn3)n[nH]2)C1 [Example 3D, (1R,3S)-3-(3-(pyridazin-3-ylamino)-1H-pyrazol-5-yl)cyclopentyl (tetrahydro-2H-pyran-4-yl)carbamate] | 1400 nM | 61 nM | 23 | 38 | 2300 nM | 7900 nM | >2.5 | > 20000 nM | –
3 | CC1(NC(=O)O[C@@H]2CC[C@H](c3cc(Nc4cccnn4)n[nH]3)C2)COC1 [Example 3G, (1R,3S)-3-(3-(pyridazin-3-ylamino)-1H-pyrazol-5-yl)cyclopentyl (3-methyloxetan-3-yl)carbamate] | 240 nM | 8.3 nM | 29 | 88 | 730 nM | 750 nM | >27 | > 20000 nM | –
4 | Cc1cc(=O)n(C)nc1Nc1cc([C@H]2CC[C@@H](OC(=O)NC(C)(C)C)C2)[nH]n1 [Example 4C, (1R,3S)-3-(3-((1,4-dimethyl-6-oxo-1,6-dihydropyridazin-3-yl)amino)-1H-pyrazol-5-yl)cyclopentyl tert-butylcarbamate] | 65 nM | 2.1 nM | 31 | 280 | 580 nM | 600 nM | 32 | 19000 nM | FS CDK1/CDK2 increased over Comparator D, (+) sign ([1]; Table R): (+); FS CDK1/CDK2 ([1]; Table R): 31; FS CDK1/CDK2 ([1]; Table S): 31; Ki ([2]; Table R): 2.1 nM; CDK2 Ki fold change in potency versus Comparator D ([2]; Table R, in brackets after CDK2 Ki): 1.3 fold; Ki ([2]; Table S): 2.1 nM; CDK2 Ki fold change in potency versus Comparator E ([2]; Table S, in brackets after CDK2 Ki): 0.3 fold; FS CDK4/CDK2 increased over Comparator D, (+) sign ([3]; Table R): (+); FS CDK4/CDK2 ([3]; Table R): 280; FS CDK4/CDK2 increased over Comparator E, (+) sign ([3]; Table S): (+); FS CDK4/CDK2 ([3]; Table S): 280; CDK2 OVISE IC50 fold change in potency versus Comparator D ([4]; Table R, in brackets after OVISE IC50): 6 fold; CDK2 OVISE IC50 fold change in potency versus Comparator E ([4]; Table S, in brackets after OVISE IC50): 0.3 fold; selectivity for CDK2 over CDK4 compared with Comparator E (SKOV-3 (ATCC HTB-77); SKOV-3/OVISE fold-selectivity cellular assay data): increase in selectivity for CDK2 over CDK4; FS SKOV-3/OVISE increased over Comparator D, (+) sign (SKOV-3 (ATCC HTB-77); Table R): (+); FS SKOV-3/OVISE (SKOV-3 (ATCC HTB-77); Table R): 32; FS SKOV-3/OVISE increased over Comparator E, (+) sign (SKOV-3 (ATCC HTB-77); Table S): (+); FS SKOV-3/OVISE (SKOV-3 (ATCC HTB-77); Table S): 32
5 | O=C(NC1(C(F)(F)F)CC1)O[C@@H]1CC[C@H](c2cc(Nc3cccnn3)n[nH]2)C1 [Example 5, (1R,3S)-3-(3-(pyridazin-3-ylamino)-1H-pyrazol-5-yl)cyclopentyl (1-(trifluoromethyl)cyclopropyl)carbamate] | 270 nM | 11 nM | 25 | 25 | 280 nM | 460 nM | 13 | 5800 nM | –
6 | CNC(=O)c1ccc(Nc2cc([C@H]3CC[C@@H](OC(=O)NC4(C)CC4)C3)[nH]n2)c(C)n1 [Example 7A, (1R,3S)-3-(3-((2-methyl-6-(methylcarbamoyl)pyridin-3-yl)amino)-1H-pyrazol-5-yl)cyclopentyl (1-methylcyclopropyl)carbamate] | 550 nM | 14 nM | 39 | 42 | 590 nM | 1400 nM | >14 | > 20000 nM | –
7 | Cc1ncccc1Nc1cc([C@H]2CC[C@@H](OC(=O)N[C@@H]3CCN(C)C3)C2)[nH]n1 [Example 7B, (1R,3S)-3-(3-((2-methylpyridin-3-yl)amino)-1H-pyrazol-5-yl)cyclopentyl ((R)-1-methylpyrrolidin-3-yl)carbamate] | 3300 nM | 300 nM | 11 | 22 | 6500 nM | 17000 nM | >1.2 | > 20000 nM | –
8 | Cc1ncccc1Nc1cc([C@H]2CC[C@@H](OC(=O)N[C@H]3CCN(C)C3)C2)[nH]n1 [Example 7C, (1R,3S)-3-(3-((2-methylpyridin-3-yl)amino)-1H-pyrazol-5-yl)cyclopentyl ((S)-1-methylpyrrolidin-3-yl)carbamate] | 3500 nM | 260 nM | 13 | 16 | 4200 nM | 8000 nM | >2.5 | > 20000 nM | –
9 | Cc1ncccc1Nc1cc([C@H]2CC[C@@H](OC(=O)NC3CC(O)C3)C2)[nH]n1 (stereo partly drawn) [Example 7D, (1R,3S)-3-(3-((2-methylpyridin-3-yl)amino)-1H-pyrazol-5-yl)cyclopentyl ((1s,3s)-3-hydroxycyclobutyl)carbamate] | 370 nM | 23 nM | 16 | 52 | 1200 nM | 1600 nM | >13 | > 20000 nM | –
10 | Cc1cc(Nc2cc([C@H]3CC[C@@H](OC(=O)NC45CC(C4)C5)C3)[nH]n2)c(C)nn1 [Example 9D, (1R,3S)-3-(3-((3,6-dimethylpyridazin-4-yl)amino)-1H-pyrazol-5-yl)cyclopentyl bicyclo[1.1.1]pentan-1-ylcarbamate] | 340 nM | 12 nM | 28 | 500 | 6000 nM | 5000 nM | >4 | > 20000 nM | –
11 | CNC(=O)c1ncc(Nc2cc([C@H]3CC[C@@H](OC(=O)NC45CC(C4)C5)C3)[nH]n2)c(C)n1 [Example 9F, (1R,3S)-3-(3-((4-methyl-2-(methylcarbamoyl)pyrimidin-5-yl)amino)-1H-pyrazol-5-yl)cyclopentyl bicyclo[1.1.1]pentan-1-ylcarbamate] | 80 nM | 5 nM | 16 | 92 | 460 nM | 1200 nM | >17 | > 20000 nM | –
12 | Cc1cnccc1Nc1cc([C@H]2CC[C@@H](OC(=O)NC34CC(C3)C4)C2)[nH]n1 [Example 9G, (1R,3S)-3-(3-((3-methylpyridin-4-yl)amino)-1H-pyrazol-5-yl)cyclopentyl bicyclo[1.1.1]pentan-1-ylcarbamate] | 770 nM | 12 nM | 64 | 110 | 1300 nM | 340 nM | 44 | 15000 nM | –
13 | COc1cc(=O)n(C)cc1Nc1cc([C@H]2CC[C@@H](OC(=O)NC34CC(C3)C4)C2)[nH]n1 [Example 10, (1R,3S)-3-(3-((4-methoxy-1-methyl-6-oxo-1,6-dihydropyridin-3-yl)amino)-1H-pyrazol-5-yl)cyclopentyl bicyclo[1.1.1]pentan-1-ylcarbamate] | 5100 nM | 130 nM | 39 | 385 | > 50000 nM | 16000 nM | >1.3 | > 20000 nM | –
